This note sets out measurements from paper PMC5896373 (Molecular Pharmacology, 2018).

Assay [1] addresses T1, chimeric P2X7/1 receptor 105–114 (Homo sapiens, UniProt Q99572, E112P/G113K/I21V/K110V/L109I/M24R/N16P/N25R/Q22R/R20V/S23N/T19I/Y26L).
T1 construct: expressed in transfected cells; host or cells: Xenopus laevis oocytes (cRNA injection)
T1 sequence (Q99572 1-595 N16P/T19I/R20V/I21V/Q22R/S23N/M24R/N25R/Y26L/L109I/K110V/E112P/G113K): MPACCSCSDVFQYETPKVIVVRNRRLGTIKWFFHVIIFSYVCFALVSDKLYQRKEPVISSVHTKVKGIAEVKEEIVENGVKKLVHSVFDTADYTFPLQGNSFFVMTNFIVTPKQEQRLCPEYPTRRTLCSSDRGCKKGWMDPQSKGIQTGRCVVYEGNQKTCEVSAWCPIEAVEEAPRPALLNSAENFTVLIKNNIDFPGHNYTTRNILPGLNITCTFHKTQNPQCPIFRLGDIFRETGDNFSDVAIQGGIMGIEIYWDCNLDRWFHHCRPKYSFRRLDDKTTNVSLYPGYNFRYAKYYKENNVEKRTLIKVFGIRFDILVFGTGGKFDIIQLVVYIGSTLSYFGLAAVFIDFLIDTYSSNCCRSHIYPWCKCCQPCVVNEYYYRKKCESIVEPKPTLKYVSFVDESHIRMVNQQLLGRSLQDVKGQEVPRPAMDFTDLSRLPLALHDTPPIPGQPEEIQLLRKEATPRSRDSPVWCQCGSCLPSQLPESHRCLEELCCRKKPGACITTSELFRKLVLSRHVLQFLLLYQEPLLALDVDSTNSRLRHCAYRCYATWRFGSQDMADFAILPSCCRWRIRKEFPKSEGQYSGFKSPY
The assay is described as follows: Two-electrode voltage clamp of ATP-evoked currents in Xenopus oocytes. It is filed as cell-based.
Experimental: (§1) Additional point mutants were made using the QuikChange mutagenesis kit (Stratagene California, La Jolla, CA). The production of the correct mutations and absence of coding errors was determined by DNA sequencing (Automated ABI Sequencing Service, University of Leicester, UK). cRNA was generated for the mutants and 50 nl (50 ng) was injected into manually defoliculated stage V Xenopus laevis oocytes using an Inject+Matic microinjector (J.A. Gabay, Inject+Matic, Geneva, Switzerland). Injected oocytes were stored at 16°C in ND96 buffer [in millimolar concentrations, NaCl 96, KCl 2, CaCl2 1.8, MgCl2 1, sodium pyruvate 5, and HEPES 5 (pH 7.6) supplemented with 50 μg/ml gentamycin and 50 μg/ml tetracycline]. Three to seven days postinjection two-electrode voltage clamp recordings were made from oocytes bathed in divalent-free ND96 buffer (in millimolar concentrations, NaCl 96, KCl 2, sodium pyruvate 5, HEPES 5, and 0.1 flufenamic acid, pH 7.6). Oocytes were voltage clamped at a holding potential of −60 mV with a GeneClamp500B amplifier (Molecular Devices).
(§2) Inhibition by the antagonists was expressed as the percentage of the peak current amplitude of an EC90 concentration of ATP recorded before the application of antagonist (ATP gave reproducible responses to ATP in the absence of antagonist). Inhibition curves were fitted with the Hill equation (variable slope) using GraphPad Prism 6 (GraphPad Software, San Diego, CA). […] Individual concentration-response curves were generated for individual experiments, and statistical analysis was carried out on the data generated. […] Data are shown as mean ± S.E.M. In all cases n ≥ 3 for all data points.

Assay [2] deals with T2, chimeric P2X7/1 receptor 81–88 (Homo sapiens, UniProt Q99572, F88W/H85P/I21V/K81P/K82G/M24R/N16P/N25R/Q22R/R20V/S23N/S86Q/T19I/V84G/Y26L).
T2 construct: expressed in transfected cells; host or cells: Xenopus laevis oocytes (cRNA injection)
T2 sequence (Q99572 1-595 N16P/T19I/R20V/I21V/Q22R/S23N/M24R/N25R/Y26L/K81P/K82G/V84G/H85P/S86Q/F88W): T1 sequence (Q99572 1-595 N16P/T19I/R20V/I21V/Q22R/S23N/M24R/N25R/Y26L/L109I/K110V/E112P/G113K) with K81P, K82G, V84G, H85P, S86Q, F88W, I109L, V110K, P112E, K113G
The assay is described as above. It is filed as cell-based.
Experimental: as §1, §2

Assay [3] addresses T3, P2X7R point mutant Y93A (Homo sapiens, UniProt Q99572, I21V/M24R/N16P/N25R/Q22R/R20V/S23N/T19I/Y26L/Y93A).
T3 construct: expressed in transfected cells; host or cells: Xenopus laevis oocytes (cRNA injection)
The description is as above. The note with it: EC90 ATP, mean ± S.E.M. It is filed as cell-based.
Experimental: (§3) Injected oocytes were stored at 16°C in ND96 buffer [in millimolar concentrations, NaCl 96, KCl 2, CaCl2 1.8, MgCl2 1, sodium pyruvate 5, and HEPES 5 (pH 7.6) supplemented with 50 μg/ml gentamycin and 50 μg/ml tetracycline]. Three to seven days postinjection two-electrode voltage clamp recordings were made from oocytes bathed in divalent-free ND96 buffer (in millimolar concentrations, NaCl 96, KCl 2, sodium pyruvate 5, HEPES 5, and 0.1 flufenamic acid, pH 7.6). Oocytes were voltage clamped at a holding potential of −60 mV with a GeneClamp500B amplifier (Molecular Devices).
as §2

For assay [4], the target named is T4, P2X7R point mutant Y299C (Homo sapiens, UniProt Q99572, I21V/M24R/N16P/N25R/Q22R/R20V/S23N/T19I/Y26L/Y299C).
T4 construct: expressed in transfected cells; host or cells: Xenopus laevis oocytes (cRNA injection)
The assay is described as above. It is filed as cell-based. The note with it: EC90 ATP, mean ± S.E.M.
Experimental: as §1
(§4) Inhibition by the antagonists was expressed as the percentage of the peak current amplitude of an EC90 concentration of ATP recorded before the application of antagonist (ATP gave reproducible responses to ATP in the absence of antagonist). […]

The target of assay [5] is T5, P2X7R mutant Insert G99 (Homo sapiens, UniProt Q99572, I21V/INS99D/M24R/N16P/N25R/Q22R/R20V/S23N/T19I/Y26L).
T5 construct: expressed in transfected cells; host or cells: Xenopus laevis oocytes (cRNA injection)
T5 sequence (Q99572 with tags, fused parts or gaps N16P/T19I/R20V/I21V/Q22R/S23N/M24R/N25R/Y26L/INS99D): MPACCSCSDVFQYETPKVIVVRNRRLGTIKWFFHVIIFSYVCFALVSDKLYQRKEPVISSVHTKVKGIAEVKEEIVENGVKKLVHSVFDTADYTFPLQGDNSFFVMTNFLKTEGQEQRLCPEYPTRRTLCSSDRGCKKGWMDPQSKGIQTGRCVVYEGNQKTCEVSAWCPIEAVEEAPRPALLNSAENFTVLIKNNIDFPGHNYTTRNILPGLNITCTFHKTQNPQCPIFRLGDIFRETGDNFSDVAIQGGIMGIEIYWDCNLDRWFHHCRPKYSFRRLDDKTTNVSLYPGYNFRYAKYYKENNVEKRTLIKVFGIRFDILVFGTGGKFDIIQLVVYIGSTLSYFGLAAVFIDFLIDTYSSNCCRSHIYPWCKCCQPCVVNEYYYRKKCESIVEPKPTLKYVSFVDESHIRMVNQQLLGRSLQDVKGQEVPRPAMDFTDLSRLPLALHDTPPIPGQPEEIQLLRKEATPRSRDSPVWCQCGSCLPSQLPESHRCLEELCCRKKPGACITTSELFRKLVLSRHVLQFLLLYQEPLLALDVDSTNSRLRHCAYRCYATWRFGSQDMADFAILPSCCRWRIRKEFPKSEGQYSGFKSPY
The description is as above. It is filed as cell-based. The settings on record: EC90 ATP, mean ± S.E.M.
Experimental: as §3
(§5) Inhibition by the antagonists was expressed as the percentage of the peak current amplitude of an EC90 concentration of ATP recorded before the application of antagonist (ATP gave reproducible responses to ATP in the absence of antagonist). Inhibition curves were fitted with the Hill equation (variable slope) using GraphPad Prism 6 (GraphPad Software, San Diego, CA). […] Individual concentration-response curves were generated for individual experiments, and statistical analysis was carried out on the data generated. When shown in figures, the inhibition curves are fitted to the mean normalized data. […] Data are shown as mean ± S.E.M. In all cases n ≥ 3 for all data points.

Assay [6] addresses T6, P2X7R point mutant V304C (Homo sapiens, UniProt Q99572, I21V/M24R/N16P/N25R/Q22R/R20V/S23N/T19I/V304C/Y26L).
T6 construct: expressed in transfected cells; host or cells: Xenopus laevis oocytes (cRNA injection)
Described as above. It is filed as cell-based. The settings on record: EC90 ATP, mean ± S.E.M.
Experimental: as §3, §2

The target in assay [7] is T7, chimeric P2X7/1 receptor 112–118 (Homo sapiens, UniProt Q99572, E112P/E115T/G113K/I21V/L118Y/M24R/N16P/N25R/Q22R/R117G/R20V/S23N/T19I/Y26L).
T7 construct: expressed in transfected cells; host or cells: Xenopus laevis oocytes (cRNA injection)
The assay is described as follows: cell-based. It is filed as cell-based.
Experimental: as §1, §2

Assay [8] concerns the target T8, P2X7R point mutant A91C (Homo sapiens, UniProt Q99572, A91C/I21V/M24R/N16P/N25R/Q22R/R20V/S23N/T19I/Y26L).
T8 construct: expressed in transfected cells; host or cells: Xenopus laevis oocytes (cRNA injection)
Put plainly: cell-based.
Experimental: as §3, §2

For assay [9], the target named is T9, P2X7R point mutant S86A (Homo sapiens, UniProt Q99572, I21V/M24R/N16P/N25R/Q22R/R20V/S23N/S86A/T19I/Y26L).
T9 construct: expressed in transfected cells; host or cells: Xenopus laevis oocytes (cRNA injection)
Put plainly: Two-electrode voltage clamp of ATP-evoked currents in Xenopus oocytes. It is filed as cell-based. The note with it: EC90 ATP, mean ± S.E.M. (Two-electrode voltage clamp holds a large cell at a set potential and records current.)
Experimental: as §1, §4

For assay [10], the target named is T10, P2X7R point mutant F103A (Homo sapiens, UniProt Q99572, F103A/I21V/M24R/N16P/N25R/Q22R/R20V/S23N/T19I/Y26L).
T10 construct: expressed in transfected cells; host or cells: Xenopus laevis oocytes (cRNA injection)
The assay is described as follows: cell-based.
Experimental: as §3, §5

Positions count from the first letter of the chain named. Bounds are passed on as bounds.

T9 sequence (Q99572 whole entry N16P/T19I/R20V/I21V/Q22R/S23N/M24R/N25R/Y26L/S86A): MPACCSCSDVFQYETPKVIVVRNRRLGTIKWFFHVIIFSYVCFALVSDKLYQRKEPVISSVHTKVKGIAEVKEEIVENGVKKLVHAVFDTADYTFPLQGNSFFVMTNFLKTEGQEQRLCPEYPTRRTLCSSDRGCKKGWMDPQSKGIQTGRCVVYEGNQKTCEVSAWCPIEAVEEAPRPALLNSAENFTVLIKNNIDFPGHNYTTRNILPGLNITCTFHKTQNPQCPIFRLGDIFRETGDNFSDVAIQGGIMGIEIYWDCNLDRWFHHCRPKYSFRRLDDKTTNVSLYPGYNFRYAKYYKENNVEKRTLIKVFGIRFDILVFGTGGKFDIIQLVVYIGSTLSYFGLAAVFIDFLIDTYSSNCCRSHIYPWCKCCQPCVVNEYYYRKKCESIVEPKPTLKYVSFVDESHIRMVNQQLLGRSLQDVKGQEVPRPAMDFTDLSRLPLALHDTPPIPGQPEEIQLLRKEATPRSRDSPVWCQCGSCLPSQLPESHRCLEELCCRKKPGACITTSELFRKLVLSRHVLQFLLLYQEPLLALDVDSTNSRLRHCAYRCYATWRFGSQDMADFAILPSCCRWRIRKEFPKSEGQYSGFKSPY
T7 sequence (Q99572 whole entry N16P/T19I/R20V/I21V/Q22R/S23N/M24R/N25R/Y26L/E112P/G113K/E115T/R117G/L118Y): as the sequence (Q99572 whole entry N16P/T19I/R20V/I21V/Q22R/S23N/M24R/N25R/Y26L/S86A) above, with A86S, E112P, G113K, E115T, R117G, L118Y counted along it
T10 sequence (Q99572 whole entry N16P/T19I/R20V/I21V/Q22R/S23N/M24R/N25R/Y26L/F103A): as the sequence (Q99572 whole entry N16P/T19I/R20V/I21V/Q22R/S23N/M24R/N25R/Y26L/S86A) above, with A86S, F103A counted along it
T3 sequence (Q99572 whole entry N16P/T19I/R20V/I21V/Q22R/S23N/M24R/N25R/Y26L/Y93A): as the sequence (Q99572 whole entry N16P/T19I/R20V/I21V/Q22R/S23N/M24R/N25R/Y26L/S86A) above, with A86S, Y93A counted along it
T6 sequence (Q99572 whole entry N16P/T19I/R20V/I21V/Q22R/S23N/M24R/N25R/Y26L/V304C): as the sequence (Q99572 whole entry N16P/T19I/R20V/I21V/Q22R/S23N/M24R/N25R/Y26L/S86A) above, with A86S, V304C counted along it
T4 sequence (Q99572 whole entry N16P/T19I/R20V/I21V/Q22R/S23N/M24R/N25R/Y26L/Y299C): as the sequence (Q99572 whole entry N16P/T19I/R20V/I21V/Q22R/S23N/M24R/N25R/Y26L/S86A) above, with A86S, Y299C counted along it
T8 sequence (Q99572 whole entry N16P/T19I/R20V/I21V/Q22R/S23N/M24R/N25R/Y26L/A91C): as the sequence (Q99572 whole entry N16P/T19I/R20V/I21V/Q22R/S23N/M24R/N25R/Y26L/S86A) above, with A86S, A91C counted along it

Regarding `Cl.Clc1cccc(-c2nnnn2Cc2cccnc2)c1Cl.O` [A438079, 3-(5-(2,3-dichlorophenyl)-1H-tetrazol-1-yl)methyl pyridine hydrochloride hydrate], the 50% inhibitory concentration (IC50) (usually the midpoint of a concentration-inhibition curve) in [1] was 501 nM; in assay [2], 1000 nM; in [3], 3980 nM; in assay [4], 251 nM; in assay [5], 12.6 µM; in [6] it was 63.1 nM. Also, the IC50 in [7] was 3160 nM; in [8], 20 µM; in assay [9], 1000 nM; in [10], more than 100000 nM.

As to `COc1ccc(CC(=O)NC(N=C(NC#N)Nc2cccc3ncccc23)C(C)(C)C)cc1OC` (stereo not shown) [A740003, N-[1-[[(cyanoamino)(5-quinolinylamino)methylene]amino]-2,2-dimethylpropyl]-3,4-dimethoxybenzeneacetamide], the IC50 in [1] is 100 nM; in [2], 79.4 nM; in [3] it was 100 nM; in assay [4], 100 nM; in assay [5], 1.58 µM; in [6], 100 nM. Besides, the concentration for half-maximal inhibition (IC50) in assay [7] was 251 nM; in [8] it was 2.51 µM; in assay [9], 79.4 nM; in [10] it was 631 nM. Further, the “effect on antagonist potency relative to P2X7-2Nβ” value in assay [1] (chimera 105–114) and in [2] (chimera 81–88) was “no effect” each time.
